Converted amounts (≈) assume the structure as drawn. Like-named read-outs stand apart in the source and are kept apart here.
Assays:
Test in all cases: Antibacterial spectra, MIC by standard method of Japan Society of Chemotherapy
Type in all cases: cell-based
[1] = system: Pseudomonas aeruginosa V-1; conditions: 10^6 cells/ml; for ratio of activity per that of Ciprofloxacin (bracketed number): Gram −; for MIC: V1, Gram −, read-out: Minimum Inhibitory Concentration
[2] = system: Bacillus subtilis PCI 219; conditions: 10^6 cells/ml; for MIC: PCI219, Gram +, read-out: Minimum Inhibitory Concentration
[3] = system: S. pyogenes IID 689 (S-8); conditions: 10^6 cells/ml; for MIC: Streptococcus pyogenes, IID689, Gram +, read-out: Minimum Inhibitory Concentration
P. morganii IID 602 = conditions: 10^6 cells/ml; for MIC: Morganella morganii, IID602, Gram −, read-out: Minimum Inhibitory Concentration
[4] = system: Alcaligenes faecalis 0104002; conditions: Gram −, 10^6 cells/ml; for MIC: read-out: Minimum Inhibitory Concentration
[5] = system: Klebsiella pneumoniae KY 6445; conditions: 10^6 cells/ml; for ratio of activity per that of Ciprofloxacin (bracketed number): Gram −; for MIC: KY6445, Gram −, read-out: Minimum Inhibitory Concentration
E. coli NIHJ JC-2 = conditions: E. coli NIHJ JC-2, Gram −, 10^6 cells/ml; for MIC: Escherichia coli, NIHJJC2, read-out: Minimum Inhibitory Concentration
[6] = system: Acinetobacter anitratus IID 876; conditions: 10^6 cells/ml; for MIC: Acinetobacter calcoaceticus, IID876, Gram −, read-out: Minimum Inhibitory Concentration
S. pneumoniae 2054 = conditions: Gram +, 10^6 cells/ml; for MIC: Streptococcus pneumoniae, read-out: Minimum Inhibitory Concentration
[7] = system: Streptococcus pyogenes IID 692; conditions: 10^6 cells/ml; for ratio of activity per that of Ciprofloxacin (bracketed number): Gram +; for MIC: IID692, Gram +, read-out: Minimum Inhibitory Concentration
[8] = system: Yersinia enterocolitica IID 981; conditions: 10^6 cells/ml; for ratio of activity per that of Ciprofloxacin (bracketed number): Gram −; for MIC: IID981, Gram −, read-out: Minimum Inhibitory Concentration
[9] = system: Salmonella enteritidis IID 604; conditions: Gram −, 10^6 cells/ml; for MIC: Salmonella enterica, read-out: Minimum Inhibitory Concentration
[10] = system: Staphylococcus aureus 209 P; conditions: Gram +, 10^6 cells/ml; for MIC: read-out: Minimum Inhibitory Concentration
S. faecalis IID 682 = conditions: 10^6 cells/ml; for MIC: Enterococcus faecalis, IID682, Gram +, read-out: Minimum Inhibitory Concentration
[11] = system: Bacteroides fragilis 25285; conditions: Gram −, 10^6 cells/ml; for MIC: read-out: Minimum Inhibitory Concentration
[12] = system: Bacteroides fragilis 0558; conditions: Gram −, 10^6 cells/ml; for MIC: read-out: Minimum Inhibitory Concentration
[13] = system: Pseudomonas aeruginosa IFO 12689; conditions: 10^6 cells/ml; for ratio of activity per that of Ciprofloxacin (bracketed number): Gram −; for MIC: IFO12689, Gram −, read-out: Minimum Inhibitory Concentration
[14] = system: S. aureus IID 670 (Terajima); conditions: 10^6 cells/ml; for MIC: Staphylococcus aureus, IID670, Gram +, read-out: Minimum Inhibitory Concentration
[15] = system: Citrobacter freundii IID 976; conditions: 10^6 cells/ml; for ratio of activity per that of Ciprofloxacin (bracketed number): Gram −; for MIC: IID976, Gram −, read-out: Minimum Inhibitory Concentration
[16] = system: Bacteroides fragilis GM 7000; conditions: 10^6 cells/ml; for MIC: GM7000, Gram −, read-out: Minimum Inhibitory Concentration; for ratio of activity per that of Ciprofloxacin (bracketed number): Gram −
[17] = system: Enterobacter cloacae IID 977; conditions: 10^6 cells/ml; for ratio of activity per that of Ciprofloxacin (bracketed number): Gram −; for MIC: IID977, Gram −, read-out: Minimum Inhibitory Concentration
E. coli ATCC 10536 = conditions: 10^6 cells/ml; for MIC: Escherichia coli, ATCC10536, Gram −, read-out: Minimum Inhibitory Concentration; for ratio of activity per that of Ciprofloxacin (bracketed number): Gram −
P. mirabilis IID 994 = conditions: 10^6 cells/ml; for ratio of activity per that of Ciprofloxacin (bracketed number): Gram −; for MIC: Proteus mirabilis, IID994, Gram −, read-out: Minimum Inhibitory Concentration
[18] = system: Proteus vulgaris IFO 3167
[19] = system: Serratia marcescens IID 618; conditions: 10^6 cells/ml; for MIC: IID618, Gram −, read-out: Minimum Inhibitory Concentration
S. epidermidis IID 866 = conditions: 10^6 cells/ml; for ratio of activity per that of Ciprofloxacin (bracketed number): Gram +; for MIC: Staphylococcus epidermidis, IID866, Gram +, read-out: Minimum Inhibitory Concentration
Shigella sonnei IID 969 = conditions: 10^6 cells/ml; for ratio of activity per that of Ciprofloxacin (bracketed number): Gram −; for MIC: IID969, Gram −, read-out: Minimum Inhibitory Concentration
Method: Experiment 1. Antibacterial spectra
Antibacterial activity was determined with the standard method recommended by Japan Society of Chemotherapy.

[20] = Proteus vulgaris IFO 3167, Gram −, 10^6 cells/ml

In the case of `O=C(O)c1cn(C2CC2)c2c(Cl)c(N3CCNCC3)c(F)cc2c1=O` [Example 25, 8-Chloro-l-cyclopropyl-6-fluoro-l,4-dihydro-4-oxo-7-(1-piperazinyl)quinoline-3-carboxylic acid], the “ratio of activity per that of Ciprofloxacin (bracketed number)” value [1] is reported as 4, the MIC [1] is reported as 0.05 mg/L (≈ 0.137 µM) and the MIC [2] is reported as 0.0125 mg/L (≈ 0.0342 µM). For the same compound, the “ratio of activity per that of Ciprofloxacin (bracketed number)” value ([3]; Gram +) was 2, the MIC [3] was 0.2 mg/L (≈ 0.547 µM) and the MIC (P. morganii IID 602) was 0.0125 mg/L (≈ 0.0342 µM). The “ratio of activity per that of Ciprofloxacin (bracketed number)” value [4] was 2, the MIC [4] was 0.02 mg/L (≈ 0.0547 µM) and the “ratio of activity per that of Ciprofloxacin (bracketed number)” value [5] was 1. The MIC [5] was 0.0125 mg/L (≈ 0.0342 µM), the “ratio of activity per that of Ciprofloxacin (bracketed number)” value (E. coli NIHJ JC-2) was 1 and the MIC (E. coli NIHJ JC-2) was ≤ 0.006 mg/L. For the same compound, the MIC [6] was 0.05 mg/L (≈ 0.137 µM), the “ratio of activity per that of Ciprofloxacin (bracketed number)” value ([6]; Gram −) was 0.5 and the “ratio of activity per that of Ciprofloxacin (bracketed number)” value (S. pneumoniae 2054) was 4. For the same compound, the MIC (S. pneumoniae 2054) was 0.39 mg/L (≈ 1.07 µM), the “ratio of activity per that of Ciprofloxacin (bracketed number)” value [7] was 2 and the MIC [7] was 0.39 mg/L (≈ 1.07 µM). The “ratio of activity per that of Ciprofloxacin (bracketed number)” value [8] was 2, the MIC [8] was 0.025 mg/L (≈ 0.0683 µM) and the “ratio of activity per that of Ciprofloxacin (bracketed number)” value [9] was 2. For the same compound, the MIC [9] was 0.0125 mg/L (≈ 0.0342 µM), the “ratio of activity per that of Ciprofloxacin (bracketed number)” value [10] was 8 and the MIC [10] was 0.05 mg/L (≈ 0.137 µM). The MIC (S. faecalis IID 682) was 0.2 mg/L (≈ 0.547 µM), the “ratio of activity per that of Ciprofloxacin (bracketed number)” value [11] was 16 and the MIC [11] was 0.2 mg/L (≈ 0.547 µM). The “ratio of activity per that of Ciprofloxacin (bracketed number)” value [12] was 16, the MIC [12] was 0.2 mg/L (≈ 0.547 µM) and the “ratio of activity per that of Ciprofloxacin (bracketed number)” value [13] was 1. The MIC [13] was 0.39 mg/L (≈ 1.07 µM), the “ratio of activity per that of Ciprofloxacin (bracketed number)” value ([14]; Gram +) was 4 and the MIC [14] was 0.1 mg/L (≈ 0.273 µM). The “ratio of activity per that of Ciprofloxacin (bracketed number)” value [15] was 0.5, the MIC [15] was 0.0125 mg/L (≈ 0.0342 µM) and the MIC [16] was 0.39 mg/L (≈ 1.07 µM). For the same compound, the “ratio of activity per that of Ciprofloxacin (bracketed number)” value [16] was 8, the “ratio of activity per that of Ciprofloxacin (bracketed number)” value [17] was 2 and the MIC [17] was 0.025 mg/L (≈ 0.0683 µM). For the same compound, the MIC (E. coli ATCC 10536) was ≤ 0.006 mg/L, the “ratio of activity per that of Ciprofloxacin (bracketed number)” value (E. coli ATCC 10536) was 2 and the “ratio of activity per that of Ciprofloxacin (bracketed number)” value (P. mirabilis IID 994) was 1. The MIC (P. mirabilis IID 994) was 0.0125 mg/L (≈ 0.0342 µM), the MIC ([18]; IFO3167, Proteus vulgaris IFO 3167, Gram −, 10^6 cells/ml, read-out: Minimum Inhibitory Concentration) was ≤ 0.006 mg/L and the “ratio of activity per that of Ciprofloxacin (bracketed number)” value [18, 20] was 1. For the same compound, the “ratio of activity per that of Ciprofloxacin (bracketed number)” value ([19]; Gram −) was 16, the MIC [19] was 0.025 mg/L (≈ 0.0683 µM) and the “ratio of activity per that of Ciprofloxacin (bracketed number)” value (S. epidermidis IID 866) was 8. The MIC (S. epidermidis IID 866) was 0.05 mg/L (≈ 0.137 µM), the “ratio of activity per that of Ciprofloxacin (bracketed number)” value (Shigella sonnei IID 969) was 1 and the MIC (Shigella sonnei IID 969) was ≤ 0.006 mg/L.
For `CN1CCN(c2c(F)cc3c(=O)c(C(=O)O)cn(C4CC4)c3c2Cl)CC1` [Example 27, 8-Chloro-1-cyclopropyl-6-fluoro-1,4-dihydro-7-(4-methyl-l-piperazinyl)4-oxoquinoline-3-carboxylic acid], the “ratio of activity per that of Ciprofloxacin (bracketed number)” value [1] was 1, the MIC [1] was 0.2 mg/L (≈ 0.527 µM) and the “ratio of activity per that of Ciprofloxacin (bracketed number)” value ([2]; Gram +) was 4. The MIC [2] was 0.0125 mg/L (≈ 0.0329 µM), the MIC [3] was 0.2 mg/L (≈ 0.527 µM) and the “ratio of activity per that of Ciprofloxacin (bracketed number)” value (P. morganii IID 602; Gram −) was 1. For the same compound, the MIC (P. morganii IID 602) was 0.05 mg/L (≈ 0.132 µM), the “ratio of activity per that of Ciprofloxacin (bracketed number)” value [4] was 1 and the MIC [4] was 0.39 mg/L (≈ 1.03 µM). For the same compound, the “ratio of activity per that of Ciprofloxacin (bracketed number)” value [5] was 0.5, the MIC [5] was 0.025 mg/L (≈ 0.0658 µM) and the “ratio of activity per that of Ciprofloxacin (bracketed number)” value (E. coli NIHJ JC-2) was 1. For the same compound, the MIC (E. coli NIHJ JC-2) was ≤ 0.006 mg/L, the MIC [6] was 0.025 mg/L (≈ 0.0658 µM) and the MIC (S. pneumoniae 2054) was 0.39 mg/L (≈ 1.03 µM). The “ratio of activity per that of Ciprofloxacin (bracketed number)” value [7] was 4, the MIC [7] was 0.2 mg/L (≈ 0.527 µM) and the “ratio of activity per that of Ciprofloxacin (bracketed number)” value [8] was 1. The MIC [8] was 0.05 mg/L (≈ 0.132 µM), the “ratio of activity per that of Ciprofloxacin (bracketed number)” value [9] was 0.5 and the MIC [9] was 0.05 mg/L (≈ 0.132 µM). For the same compound, the “ratio of activity per that of Ciprofloxacin (bracketed number)” value [10] was 4, the MIC [10] was 0.1 mg/L (≈ 0.263 µM) and the MIC (S. faecalis IID 682) was 0.39 mg/L (≈ 1.03 µM). For the same compound, the “ratio of activity per that of Ciprofloxacin (bracketed number)” value (S. faecalis IID 682; Gram +) was 2, the “ratio of activity per that of Ciprofloxacin (bracketed number)” value [11] was 32 and the MIC [11] was 0.1 mg/L (≈ 0.263 µM). For the same compound, the “ratio of activity per that of Ciprofloxacin (bracketed number)” value [12] was 32, the MIC [12] was 0.1 mg/L (≈ 0.263 µM) and the “ratio of activity per that of Ciprofloxacin (bracketed number)” value [13] was 0.25. For the same compound, the MIC [13] was 1.56 mg/L (≈ 4.11 µM), the MIC [14] was 0.1 mg/L (≈ 0.263 µM) and the “ratio of activity per that of Ciprofloxacin (bracketed number)” value [15] was 0.25. The MIC [15] was 0.025 mg/L (≈ 0.0658 µM), the MIC [16] was 0.2 mg/L (≈ 0.527 µM) and the “ratio of activity per that of Ciprofloxacin (bracketed number)” value [16] was 16. For the same compound, the “ratio of activity per that of Ciprofloxacin (bracketed number)” value [17] was 1, the MIC [17] was 0.05 mg/L (≈ 0.132 µM) and the MIC (E. coli ATCC 10536) was 0.0125 mg/L (≈ 0.0329 µM). The “ratio of activity per that of Ciprofloxacin (bracketed number)” value (E. coli ATCC 10536) was 1, the “ratio of activity per that of Ciprofloxacin (bracketed number)” value (P. mirabilis IID 994) was 0.5 and the MIC (P. mirabilis IID 994) was 0.025 mg/L (≈ 0.0658 µM). The “ratio of activity per that of Ciprofloxacin (bracketed number)” value [18, 20] was 0.5, the MIC ([18]; Proteus vulgaris, IFO3167, read-out: Minimum Inhibitory Concentration) was 0.0125 mg/L (≈ 0.0329 µM) and the MIC [19] was 0.05 mg/L (≈ 0.132 µM). The “ratio of activity per that of Ciprofloxacin (bracketed number)” value (S. epidermidis IID 866) was 4, the MIC (S. epidermidis IID 866) was 0.1 mg/L (≈ 0.263 µM) and the “ratio of activity per that of Ciprofloxacin (bracketed number)” value (Shigella sonnei IID 969) was 0.5. For the same compound, the MIC (Shigella sonnei IID 969) was 0.0125 mg/L (≈ 0.0329 µM).

— patent EP0195841A1, “Quinolinecarboxylic acid derivatives and process for their preparation” (KYORIN PHARMACEUTICAL CO., LTD., priority 1985, dated 1986)
